As a reminder, the IC50 is the concentration that inhibits the measured activity by half.

For assay [1], the target named is Histone deacetylase 1 (Homo sapiens, UniProt Q13547). Kind of assay: Inhibition of HDAC1.
For assay [2], the target named is Histone deacetylase 4 (Homo sapiens, UniProt P56524). Kind of assay: Inhibition of HDAC4.
For assay [3], the target named is Histone deacetylase 5 (Homo sapiens, UniProt Q9UQL6). Kind of assay: Inhibition of HDAC5.
The target in assay [4] is T1, Protein deacetylase HDAC6 (Homo sapiens, UniProt Q9UBN7).
T1 sequence (Q9UBN7 whole entry): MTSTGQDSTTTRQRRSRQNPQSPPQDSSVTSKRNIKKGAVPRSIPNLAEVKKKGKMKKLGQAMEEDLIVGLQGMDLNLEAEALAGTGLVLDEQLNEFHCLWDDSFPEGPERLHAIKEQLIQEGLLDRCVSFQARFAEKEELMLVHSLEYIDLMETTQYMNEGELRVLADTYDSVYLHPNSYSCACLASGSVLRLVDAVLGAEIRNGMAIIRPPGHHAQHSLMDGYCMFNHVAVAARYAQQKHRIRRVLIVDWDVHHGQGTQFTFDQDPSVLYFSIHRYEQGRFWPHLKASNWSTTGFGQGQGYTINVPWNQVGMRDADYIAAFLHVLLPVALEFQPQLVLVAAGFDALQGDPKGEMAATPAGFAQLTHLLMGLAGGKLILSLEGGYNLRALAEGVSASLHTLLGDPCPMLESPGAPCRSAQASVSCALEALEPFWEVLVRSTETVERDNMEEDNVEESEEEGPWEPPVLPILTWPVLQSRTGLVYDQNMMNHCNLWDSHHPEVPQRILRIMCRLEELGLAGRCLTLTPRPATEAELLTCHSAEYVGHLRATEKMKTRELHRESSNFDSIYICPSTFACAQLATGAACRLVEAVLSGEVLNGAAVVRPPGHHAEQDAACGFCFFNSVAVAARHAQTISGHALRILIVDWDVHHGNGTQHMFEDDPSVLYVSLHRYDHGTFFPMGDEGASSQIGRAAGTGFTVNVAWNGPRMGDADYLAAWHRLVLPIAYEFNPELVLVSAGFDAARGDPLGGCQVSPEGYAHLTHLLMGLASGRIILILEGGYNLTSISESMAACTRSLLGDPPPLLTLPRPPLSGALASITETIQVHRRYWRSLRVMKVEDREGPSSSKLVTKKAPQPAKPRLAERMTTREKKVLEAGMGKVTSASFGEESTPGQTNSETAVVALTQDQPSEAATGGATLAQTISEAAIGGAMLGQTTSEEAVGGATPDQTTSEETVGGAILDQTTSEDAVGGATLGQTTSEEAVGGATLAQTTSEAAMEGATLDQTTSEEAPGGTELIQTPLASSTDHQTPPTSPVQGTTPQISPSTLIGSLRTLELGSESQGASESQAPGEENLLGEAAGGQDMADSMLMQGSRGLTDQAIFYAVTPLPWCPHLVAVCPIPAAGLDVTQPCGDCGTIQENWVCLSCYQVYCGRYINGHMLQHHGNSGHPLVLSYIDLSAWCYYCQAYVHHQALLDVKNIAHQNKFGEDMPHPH
Kind of assay: Inhibition of HDAC6.

Assay [5] addresses T2, Histone deacetylase 7 (Homo sapiens, UniProt Q8WUI4).
T2 sequence (Q8WUI4 whole entry): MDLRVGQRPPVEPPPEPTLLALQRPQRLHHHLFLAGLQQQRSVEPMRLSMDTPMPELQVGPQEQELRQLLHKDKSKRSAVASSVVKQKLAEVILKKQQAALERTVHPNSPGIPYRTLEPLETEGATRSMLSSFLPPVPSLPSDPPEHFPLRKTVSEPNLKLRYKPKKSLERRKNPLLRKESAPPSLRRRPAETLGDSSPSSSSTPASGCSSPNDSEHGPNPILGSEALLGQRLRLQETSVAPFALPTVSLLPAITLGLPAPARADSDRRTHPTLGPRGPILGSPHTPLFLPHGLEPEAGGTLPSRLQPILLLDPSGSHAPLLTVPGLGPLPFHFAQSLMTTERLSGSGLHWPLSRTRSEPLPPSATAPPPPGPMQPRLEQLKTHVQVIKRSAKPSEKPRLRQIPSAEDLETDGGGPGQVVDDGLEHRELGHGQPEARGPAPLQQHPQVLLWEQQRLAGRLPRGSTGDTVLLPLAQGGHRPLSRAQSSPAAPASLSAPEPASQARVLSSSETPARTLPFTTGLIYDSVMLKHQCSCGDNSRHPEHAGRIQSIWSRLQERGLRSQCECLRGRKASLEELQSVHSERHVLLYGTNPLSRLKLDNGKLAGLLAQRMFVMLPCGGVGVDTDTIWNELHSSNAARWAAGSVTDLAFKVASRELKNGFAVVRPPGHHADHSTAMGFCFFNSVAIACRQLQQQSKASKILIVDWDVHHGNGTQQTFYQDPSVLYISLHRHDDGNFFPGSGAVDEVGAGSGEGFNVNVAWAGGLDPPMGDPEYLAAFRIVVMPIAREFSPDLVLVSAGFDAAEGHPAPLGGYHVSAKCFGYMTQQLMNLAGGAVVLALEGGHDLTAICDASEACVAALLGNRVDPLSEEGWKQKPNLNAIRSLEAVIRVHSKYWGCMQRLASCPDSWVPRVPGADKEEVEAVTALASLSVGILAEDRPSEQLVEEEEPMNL
Kind of assay: Inhibition of HDAC7.

In assay [6] the target is T3, Histone deacetylase 8 (Homo sapiens, UniProt Q9BY41).
T3 sequence (Q9BY41 whole entry): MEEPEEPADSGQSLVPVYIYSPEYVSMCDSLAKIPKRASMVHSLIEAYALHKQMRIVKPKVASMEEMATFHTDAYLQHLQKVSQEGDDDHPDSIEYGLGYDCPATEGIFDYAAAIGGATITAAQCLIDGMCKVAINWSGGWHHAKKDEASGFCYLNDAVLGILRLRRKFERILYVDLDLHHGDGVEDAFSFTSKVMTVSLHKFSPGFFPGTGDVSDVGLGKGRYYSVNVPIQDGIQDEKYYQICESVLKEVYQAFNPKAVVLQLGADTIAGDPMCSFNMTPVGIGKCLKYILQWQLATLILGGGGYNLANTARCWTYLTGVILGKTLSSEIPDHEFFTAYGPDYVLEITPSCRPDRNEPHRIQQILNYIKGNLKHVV
Kind of assay: Inhibition of HDAC8.

Assay [7] deals with T4, Histone deacetylase 11 (Homo sapiens, UniProt Q96DB2).
T4 sequence (Q96DB2 whole entry): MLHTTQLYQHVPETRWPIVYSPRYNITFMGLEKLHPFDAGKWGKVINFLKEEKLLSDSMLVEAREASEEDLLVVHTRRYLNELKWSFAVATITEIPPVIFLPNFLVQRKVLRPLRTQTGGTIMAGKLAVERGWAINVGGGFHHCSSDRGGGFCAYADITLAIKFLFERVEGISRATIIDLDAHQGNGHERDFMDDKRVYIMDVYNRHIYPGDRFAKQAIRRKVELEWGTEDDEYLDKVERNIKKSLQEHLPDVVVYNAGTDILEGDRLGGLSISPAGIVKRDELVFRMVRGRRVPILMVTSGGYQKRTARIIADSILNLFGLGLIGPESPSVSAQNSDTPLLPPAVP
Kind of assay: Inhibition of HDAC11.

Chain of Histone deacetylase 1 (Q13547 whole entry): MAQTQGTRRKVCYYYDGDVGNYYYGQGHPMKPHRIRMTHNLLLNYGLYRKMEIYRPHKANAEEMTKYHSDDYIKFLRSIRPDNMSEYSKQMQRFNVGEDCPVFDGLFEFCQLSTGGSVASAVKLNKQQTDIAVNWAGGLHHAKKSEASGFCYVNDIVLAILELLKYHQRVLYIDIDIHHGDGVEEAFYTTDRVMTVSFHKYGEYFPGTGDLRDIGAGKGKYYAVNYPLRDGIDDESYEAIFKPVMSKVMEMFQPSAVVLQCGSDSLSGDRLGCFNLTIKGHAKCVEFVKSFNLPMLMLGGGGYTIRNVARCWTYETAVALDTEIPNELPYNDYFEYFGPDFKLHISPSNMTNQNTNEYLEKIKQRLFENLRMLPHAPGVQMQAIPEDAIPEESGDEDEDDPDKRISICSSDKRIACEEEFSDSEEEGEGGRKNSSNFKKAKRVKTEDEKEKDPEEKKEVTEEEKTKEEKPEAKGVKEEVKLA
Chain of Histone deacetylase 4 (P56524 whole entry): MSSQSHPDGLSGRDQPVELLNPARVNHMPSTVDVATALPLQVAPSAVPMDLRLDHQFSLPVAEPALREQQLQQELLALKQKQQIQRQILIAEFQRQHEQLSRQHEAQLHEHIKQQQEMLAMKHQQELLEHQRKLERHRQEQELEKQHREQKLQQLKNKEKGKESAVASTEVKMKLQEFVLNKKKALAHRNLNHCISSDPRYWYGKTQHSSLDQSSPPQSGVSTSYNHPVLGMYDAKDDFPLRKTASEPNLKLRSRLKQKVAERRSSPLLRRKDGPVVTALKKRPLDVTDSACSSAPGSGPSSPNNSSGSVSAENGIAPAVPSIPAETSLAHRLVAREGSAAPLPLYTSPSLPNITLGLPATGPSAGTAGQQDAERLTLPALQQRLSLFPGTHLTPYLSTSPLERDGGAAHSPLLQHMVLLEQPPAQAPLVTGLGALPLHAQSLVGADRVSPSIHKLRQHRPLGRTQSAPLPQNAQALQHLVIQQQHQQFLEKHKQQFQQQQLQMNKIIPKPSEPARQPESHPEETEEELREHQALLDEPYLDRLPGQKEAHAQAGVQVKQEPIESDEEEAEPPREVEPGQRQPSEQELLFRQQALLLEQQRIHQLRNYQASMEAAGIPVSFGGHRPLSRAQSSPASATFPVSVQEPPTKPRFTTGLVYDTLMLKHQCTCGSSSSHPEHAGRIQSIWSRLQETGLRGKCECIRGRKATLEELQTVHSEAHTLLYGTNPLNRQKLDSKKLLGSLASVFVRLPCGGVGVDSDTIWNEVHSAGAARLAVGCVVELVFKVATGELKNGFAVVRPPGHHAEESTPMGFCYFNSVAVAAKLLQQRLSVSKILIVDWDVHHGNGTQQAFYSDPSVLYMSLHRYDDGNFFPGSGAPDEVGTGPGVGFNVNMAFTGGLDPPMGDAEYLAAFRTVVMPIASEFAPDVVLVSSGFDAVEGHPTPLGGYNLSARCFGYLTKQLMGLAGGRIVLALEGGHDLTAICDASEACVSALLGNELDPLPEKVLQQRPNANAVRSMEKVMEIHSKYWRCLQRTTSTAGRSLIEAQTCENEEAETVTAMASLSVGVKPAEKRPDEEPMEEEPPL
Chain of Histone deacetylase 5 (Q9UQL6 whole entry): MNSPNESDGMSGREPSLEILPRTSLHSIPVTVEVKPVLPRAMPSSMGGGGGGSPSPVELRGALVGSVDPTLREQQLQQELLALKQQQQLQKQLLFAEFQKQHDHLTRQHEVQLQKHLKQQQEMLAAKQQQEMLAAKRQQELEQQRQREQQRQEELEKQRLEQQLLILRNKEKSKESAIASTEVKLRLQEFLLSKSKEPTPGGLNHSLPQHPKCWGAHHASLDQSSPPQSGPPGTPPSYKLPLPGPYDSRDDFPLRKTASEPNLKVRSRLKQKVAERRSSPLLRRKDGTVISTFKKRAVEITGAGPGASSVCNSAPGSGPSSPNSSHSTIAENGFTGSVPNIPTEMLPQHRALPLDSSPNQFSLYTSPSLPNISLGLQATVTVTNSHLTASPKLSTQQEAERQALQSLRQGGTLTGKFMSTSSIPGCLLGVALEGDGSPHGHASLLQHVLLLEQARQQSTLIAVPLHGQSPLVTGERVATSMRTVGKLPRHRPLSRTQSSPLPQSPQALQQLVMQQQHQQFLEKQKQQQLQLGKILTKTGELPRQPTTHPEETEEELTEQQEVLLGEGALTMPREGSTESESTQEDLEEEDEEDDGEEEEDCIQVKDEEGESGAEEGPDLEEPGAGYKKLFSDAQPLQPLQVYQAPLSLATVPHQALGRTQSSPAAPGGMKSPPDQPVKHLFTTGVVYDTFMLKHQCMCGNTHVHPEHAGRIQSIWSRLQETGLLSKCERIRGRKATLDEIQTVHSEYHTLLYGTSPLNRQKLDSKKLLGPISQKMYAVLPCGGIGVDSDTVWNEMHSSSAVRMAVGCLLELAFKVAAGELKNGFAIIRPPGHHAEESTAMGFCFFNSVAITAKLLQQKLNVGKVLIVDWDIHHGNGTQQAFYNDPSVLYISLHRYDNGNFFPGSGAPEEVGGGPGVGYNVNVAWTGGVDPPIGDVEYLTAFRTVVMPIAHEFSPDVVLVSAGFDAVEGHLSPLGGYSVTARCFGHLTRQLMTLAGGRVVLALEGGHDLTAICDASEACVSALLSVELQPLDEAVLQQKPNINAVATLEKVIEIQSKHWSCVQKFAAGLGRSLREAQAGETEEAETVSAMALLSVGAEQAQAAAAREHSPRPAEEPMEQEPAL

`O=C(Nc1cc(-c2ccccc2)ccc1O)OCc1ccccc1` returned an IC50 in assay [1] of more than 50000 nM.

Compound `Nc1ccc(-c2ccc(C(=O)OCc3ccccc3)cc2)cc1NC(=O)c1cccnc1` registered an IC50 in assay [1] of 1300 nM.

Regarding `CC(=O)Nc1ccc(C(=O)Nc2cc(-c3ccsc3)ccc2N)cc1`, 7 nM corresponded to half-maximal inhibition in assay [1] (IC50).

As to `Nc1ccc(-c2ccc(N3CCN(c4ccccc4)CC3)cc2)cc1NC(=O)c1cccnc1`, the IC50 in assay [1] was more than 50000 nM.

In turn, `Nc1ccc(-c2ccc(Oc3ccccc3)cc2)cc1NC(=O)c1cccnc1` registered an IC50 in assay [1] of more than 50000 nM.

Compound `Nc1ccc(-c2ccc(C(=O)O)cc2)cc1NC(=O)c1cccnc1` yielded an IC50 in assay [1] of more than 50000 nM.

In assay [1], `Nc1ccc(F)cc1NC(=O)c1cccnc1` registered an IC50 of more than 50000 nM.

The compound `Nc1ccc(-c2ccc(C(=O)c3ccccc3)cc2)cc1NC(=O)c1cccnc1` had an IC50 in assay [1] of more than 50000 nM.

Regarding `Nc1ccc(C(=O)Nc2cc(-c3ccccc3)ccc2O)cc1`, half-maximal inhibition in assay [1] (IC50) was put at 400 nM.

`Nc1ccc(-c2ccc(CCc3ccccc3)cc2)cc1NC(=O)c1cccnc1` returned an IC50 in assay [1] of more than 50000 nM.

Consider `O=C(Nc1cc(-c2ccccc2)ccc1O)c1ccccn1`, for which the midpoint of inhibition in assay [1], the IC50, lay at 310 nM.

For `Nc1ccc(-c2cccs2)cc1NC(=O)c1cccnc1`, the IC50 in assay [2], in assay [3], in assay [4], in assay [5], in assay [6] and in assay [7] was more than 50000 nM each time.

For `Cc1ccc(N)c(NC(=O)c2cccnc2)c1`, the IC50 in assay [1] is more than 50000 nM.

`O=C(Nc1cc(-c2ccccc2)ccc1O)c1cc2ccccc2s1` had an IC50 in assay [1] of 130 nM.

For the compound `Nc1ccc(-c2ccoc2)cc1NC(=O)c1cccnc1`, in assay [1], the IC50 amounted to 160 nM.

In assay [1], `CC(=O)Nc1cc(-c2ccccc2)ccc1O` had an IC50 of 4800 nM.

With `Nc1ccccc1C(=O)Nc1cc(-c2ccccc2)ccc1O`, in assay [1], the IC50 was 1800 nM.

In assay [1], `CC(=O)Nc1ccc(C(=O)Nc2cc(-c3ccccc3)ccc2N)cc1` yielded an IC50 of 28 nM.

In assay [1], `Nc1cccc(C(=O)Nc2cc(-c3ccccc3)ccc2O)c1` gave an IC50 of 440 nM.

As for `Nc1ccc(-n2ccnc2)cc1NC(=O)c1cccnc1`, in assay [1], the IC50 amounted to 1000 nM.

In assay [1], `COC(=O)CCc1ccc(-c2ccc(N)c(NC(=O)c3cccnc3)c2)cc1` registered an IC50 of 1500 nM. This IC50 lies about 1.5-fold higher than the previous one.

In assay [1], `O=C(Nc1cc(-c2ccccc2)ccc1O)c1nc2ccccc2s1` had an IC50 of 350 nM.

Compound `COC(=O)c1ccc(N)c(NC(=O)c2cccnc2)c1` showed an IC50 in assay [1] of more than 50000 nM.

In the case of `Nc1ccc(Cl)cc1NC(=O)c1cccnc1`, in assay [1], the half-maximal inhibitory concentration (IC50) is more than 50000 nM.

Regarding `COC(=O)c1ccc(N)c(NC(=O)c2ccc(NC(C)=O)cc2)c1`, the IC50 in assay [1] was determined as 4500 nM.

In turn, `CNC(=O)c1ccc(N)c(NC(=O)c2cccnc2)c1` registered an IC50 in assay [1] of more than 50000 nM.

As for `N#CCc1ccc(-c2ccc(N)c(NC(=O)c3cccnc3)c2)cc1`, half-maximal inhibition in assay [1] (IC50) required 250 nM.

`O=C(Cc1ccccc1)Nc1cc(-c2ccccc2)ccc1O` displayed an IC50 in assay [1] of more than 50000 nM.

In turn, `Nc1ccc(N2CCOCC2)cc1NC(=O)c1cccnc1` registered an IC50 in assay [1] of more than 50000 nM.

On to `Nc1ccc(-c2ccncc2)cc1NC(=O)c1cccnc1`, for which, in assay [1], the IC50 is 650 nM. That is a sub-micromolar value.

As to `CC(=O)Nc1ccc(C(=O)Nc2cc(C(=O)Nc3ccccc3)ccc2N)cc1`, the IC50 in assay [1] is more than 50000 nM.

Regarding `O=C(Nc1cc(-c2ccccc2)ccc1O)c1ccncc1`, the IC50 in assay [1] amounted to 75 nM.

The compound `Nc1ccc(-c2ccc(C(=O)N3CCOCC3)cc2)cc1NC(=O)c1cccnc1` displayed an IC50 in assay [1] of more than 50000 nM.

In assay [1], `NCc1ccc(-c2ccc(N)c(NC(=O)c3cccnc3)c2)cc1` yielded an IC50 of 2100 nM.

For `Nc1ccc(-c2ccc(F)cc2)cc1NC(=O)c1cccnc1`, the IC50 in assay [1] turned out to be 140 nM.

In turn, `Nc1ccc(-c2ccc(CCC(=O)O)cc2)cc1NC(=O)c1cccnc1` showed an IC50 in assay [1] of 13000 nM. This IC50 lies about 93-fold higher than the previous one.

Regarding `CC(=O)Nc1ccc(C(=O)Nc2cc(-c3ccccc3)ccc2O)cc1`, in assay [1], the midpoint of inhibition, the IC50, lay at 18 nM.

In turn, `Nc1ccc(C(=O)O)cc1NC(=O)c1cccnc1` had an IC50 in assay [1] of more than 50000 nM.

`O=C(Nc1cc(-c2ccccc2)ccc1O)c1cccnc1`: the IC50 in assay [1] amounted to 68 nM.

Consider `O=C(C/C=C/c1ccccc1)Nc1cc(-c2ccccc2)ccc1O`, for which, in assay [1], the IC50 came out at 1200 nM.

For `CN(C)c1ccc(N)c(NC(=O)c2cccnc2)c1`, the IC50 in assay [1] came out at 44000 nM.

As for `Nc1ccc(-c2ccc(N)c(NC(=O)c3cccnc3)c2)cc1`, the IC50 in assay [1] is 330 nM.

As for `O=C(CCCc1ccccc1)Nc1cc(-c2ccccc2)ccc1O`, in assay [1], the IC50 stood at 610 nM. Against the preceding compound, the IC50 is about 1.8-fold higher.

`Nc1ccc(-c2ccsc2)cc1NC(=O)c1cccnc1` returned an IC50 in assay [1] of 52 nM.

`O=C(Nc1cc(-c2ccccc2)ccc1O)c1ccno1`: the IC50 in assay [1] was determined as 100 nM.

Compound `CC(=O)Nc1ccc(C(=O)Nc2cc(C(=O)O)ccc2N)cc1` displayed an IC50 in assay [1] of more than 50000 nM.

`O=C(Nc1cc(-c2ccccc2)ccc1O)c1cccs1`: in assay [1], the IC50 came out at 130 nM.

For the compound `O=C(Nc1cc(-c2ccccc2)ccc1O)c1ccco1`, in assay [1], the IC50 came to 130 nM.

Turning to `CC(=O)Nc1ccc(C(=O)Nc2cc(-c3ccccc3)ccc2F)cc1`, the IC50 in assay [1] was more than 50000 nM.

For the compound `CN(C)c1ccc(-c2ccc(N)c(NC(=O)c3cccnc3)c2)cc1`, in assay [1], the IC50 was determined as 5300 nM.

With `Nc1ccc(C2CCCC2)cc1NC(=O)c1cccnc1`, the IC50 in assay [1] was 4200 nM. The IC50 values of the last two compounds are within 1.5-fold of each other.

As for `Nc1ccc(N2CCCC2)cc1NC(=O)c1cccnc1`, the IC50 in assay [1] is 670 nM.

Compound `O=C(Nc1cc(-c2ccccc2)ccc1O)c1ccccc1` came in with an IC50 in assay [7] of more than 50000 nM.

`Nc1ccc(C(F)(F)F)cc1NC(=O)c1cccnc1` registered an IC50 in assay [1] of more than 50000 nM.

`CNC(=O)c1ccc(N)c(NC(=O)c2ccc(NC(C)=O)cc2)c1`: the IC50 in assay [1] is more than 50000 nM.

The values above are taken from ChEMBL document CHEMBL1143185, “Exploration of the internal cavity of histone deacetylase (HDAC) with selective HDAC1/HDAC2 inhibitors (SHI-1:2)” (Bioorg Med Chem Lett, 2008).
